The text below walks through data of patent US9340590B2 (priority 2011, dated 2016).

pIC50: −log10 of the molar value. Where two headings read alike, the source gives them in different places. Positions of bridges follow the written chain, without caps; N, C: chain ends. Non-standard residues stand in square brackets, D forms with d. Residues, ends and D or L forms follow the SMILES beside them. *: point of attachment. 2Nal = N[C@@H](Cc1ccc2ccccc2c1)C(=O)O; 2Thi = N[C@@H](Cc1cccs1)C(=O)O; Cha = N[C@@H](CC1CCCCC1)C(=O)O; Pent4ynoyl = C#CCCC(=O)*; Nva = CCC[C@H](N)C(=O)O

Holding throughout (test): cell-based
The target of one test is hNav1.3 (Homo sapiens, UniProt Q9NY46). The settings on record: IonWorks Quattro, read-out: IWQ Use Nav1.3. A general note: Patch clamp records ionic current or voltage across a cell membrane.
A further test has as its target hNav1.7 (Homo sapiens, UniProt Q15858). The format is cell-based. As to conditions: IonWorks Quattro, read-out: IWQ Use Nav1.7.
The target in the next test is hNav1.5 (Homo sapiens, UniProt Q14524). The settings on record: IonWorks Quattro, read-out: IWQ Use Nav1.5.
[1] abbreviates: clamped to −110 mV, depolarized to −10 mV, 5 min after compound, n=2.

hNav1.5, sequence (Q14524 whole entry, looked up): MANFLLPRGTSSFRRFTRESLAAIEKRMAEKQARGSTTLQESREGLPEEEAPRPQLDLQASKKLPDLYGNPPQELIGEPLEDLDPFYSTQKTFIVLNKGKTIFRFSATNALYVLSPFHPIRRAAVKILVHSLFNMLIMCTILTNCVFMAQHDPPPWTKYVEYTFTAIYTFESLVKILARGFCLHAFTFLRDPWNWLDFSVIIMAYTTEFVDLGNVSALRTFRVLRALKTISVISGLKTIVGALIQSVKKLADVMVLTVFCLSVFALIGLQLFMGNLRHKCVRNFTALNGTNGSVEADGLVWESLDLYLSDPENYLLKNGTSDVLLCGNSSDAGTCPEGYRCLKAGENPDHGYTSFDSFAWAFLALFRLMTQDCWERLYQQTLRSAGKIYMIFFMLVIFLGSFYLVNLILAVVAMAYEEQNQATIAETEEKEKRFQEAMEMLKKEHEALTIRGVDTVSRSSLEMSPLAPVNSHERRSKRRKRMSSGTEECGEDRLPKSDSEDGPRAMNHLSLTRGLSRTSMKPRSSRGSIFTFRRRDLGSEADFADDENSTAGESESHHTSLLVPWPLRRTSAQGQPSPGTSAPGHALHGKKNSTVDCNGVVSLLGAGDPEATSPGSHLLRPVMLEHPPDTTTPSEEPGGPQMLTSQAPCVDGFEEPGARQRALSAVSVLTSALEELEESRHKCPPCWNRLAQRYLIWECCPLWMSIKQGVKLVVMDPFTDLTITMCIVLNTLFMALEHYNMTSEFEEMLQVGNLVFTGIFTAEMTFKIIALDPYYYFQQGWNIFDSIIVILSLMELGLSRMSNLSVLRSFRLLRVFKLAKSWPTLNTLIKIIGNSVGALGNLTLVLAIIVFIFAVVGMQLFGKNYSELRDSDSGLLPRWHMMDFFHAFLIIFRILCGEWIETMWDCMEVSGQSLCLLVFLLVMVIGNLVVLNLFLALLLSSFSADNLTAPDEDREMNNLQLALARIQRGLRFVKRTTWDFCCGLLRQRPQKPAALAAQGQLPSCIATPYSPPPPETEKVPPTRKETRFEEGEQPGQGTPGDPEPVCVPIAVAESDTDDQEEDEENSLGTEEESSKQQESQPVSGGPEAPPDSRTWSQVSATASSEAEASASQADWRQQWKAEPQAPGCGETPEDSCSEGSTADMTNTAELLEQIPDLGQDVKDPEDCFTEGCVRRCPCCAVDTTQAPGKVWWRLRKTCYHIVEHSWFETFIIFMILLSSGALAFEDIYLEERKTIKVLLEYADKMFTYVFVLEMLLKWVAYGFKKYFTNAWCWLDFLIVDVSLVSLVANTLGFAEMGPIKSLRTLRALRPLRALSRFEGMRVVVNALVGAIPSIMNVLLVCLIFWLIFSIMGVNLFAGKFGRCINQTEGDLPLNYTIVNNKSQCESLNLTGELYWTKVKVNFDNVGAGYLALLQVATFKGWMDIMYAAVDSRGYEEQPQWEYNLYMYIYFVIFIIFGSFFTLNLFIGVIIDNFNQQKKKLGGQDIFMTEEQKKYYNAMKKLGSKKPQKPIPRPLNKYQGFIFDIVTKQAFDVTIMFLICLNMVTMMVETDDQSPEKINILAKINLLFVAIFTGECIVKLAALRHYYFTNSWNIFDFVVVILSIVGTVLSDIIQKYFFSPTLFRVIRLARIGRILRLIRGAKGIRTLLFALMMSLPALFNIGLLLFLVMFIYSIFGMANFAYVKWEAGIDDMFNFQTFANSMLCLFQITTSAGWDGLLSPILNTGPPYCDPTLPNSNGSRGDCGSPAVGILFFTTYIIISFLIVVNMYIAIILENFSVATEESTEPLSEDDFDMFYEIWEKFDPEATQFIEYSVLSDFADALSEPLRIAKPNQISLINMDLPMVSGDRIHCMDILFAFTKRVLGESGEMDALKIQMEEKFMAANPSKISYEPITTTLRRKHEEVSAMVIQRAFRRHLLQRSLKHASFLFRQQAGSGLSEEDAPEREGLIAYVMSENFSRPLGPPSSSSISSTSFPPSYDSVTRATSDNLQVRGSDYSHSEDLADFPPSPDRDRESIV
hNav1.7, sequence (Q15858 whole entry, looked up): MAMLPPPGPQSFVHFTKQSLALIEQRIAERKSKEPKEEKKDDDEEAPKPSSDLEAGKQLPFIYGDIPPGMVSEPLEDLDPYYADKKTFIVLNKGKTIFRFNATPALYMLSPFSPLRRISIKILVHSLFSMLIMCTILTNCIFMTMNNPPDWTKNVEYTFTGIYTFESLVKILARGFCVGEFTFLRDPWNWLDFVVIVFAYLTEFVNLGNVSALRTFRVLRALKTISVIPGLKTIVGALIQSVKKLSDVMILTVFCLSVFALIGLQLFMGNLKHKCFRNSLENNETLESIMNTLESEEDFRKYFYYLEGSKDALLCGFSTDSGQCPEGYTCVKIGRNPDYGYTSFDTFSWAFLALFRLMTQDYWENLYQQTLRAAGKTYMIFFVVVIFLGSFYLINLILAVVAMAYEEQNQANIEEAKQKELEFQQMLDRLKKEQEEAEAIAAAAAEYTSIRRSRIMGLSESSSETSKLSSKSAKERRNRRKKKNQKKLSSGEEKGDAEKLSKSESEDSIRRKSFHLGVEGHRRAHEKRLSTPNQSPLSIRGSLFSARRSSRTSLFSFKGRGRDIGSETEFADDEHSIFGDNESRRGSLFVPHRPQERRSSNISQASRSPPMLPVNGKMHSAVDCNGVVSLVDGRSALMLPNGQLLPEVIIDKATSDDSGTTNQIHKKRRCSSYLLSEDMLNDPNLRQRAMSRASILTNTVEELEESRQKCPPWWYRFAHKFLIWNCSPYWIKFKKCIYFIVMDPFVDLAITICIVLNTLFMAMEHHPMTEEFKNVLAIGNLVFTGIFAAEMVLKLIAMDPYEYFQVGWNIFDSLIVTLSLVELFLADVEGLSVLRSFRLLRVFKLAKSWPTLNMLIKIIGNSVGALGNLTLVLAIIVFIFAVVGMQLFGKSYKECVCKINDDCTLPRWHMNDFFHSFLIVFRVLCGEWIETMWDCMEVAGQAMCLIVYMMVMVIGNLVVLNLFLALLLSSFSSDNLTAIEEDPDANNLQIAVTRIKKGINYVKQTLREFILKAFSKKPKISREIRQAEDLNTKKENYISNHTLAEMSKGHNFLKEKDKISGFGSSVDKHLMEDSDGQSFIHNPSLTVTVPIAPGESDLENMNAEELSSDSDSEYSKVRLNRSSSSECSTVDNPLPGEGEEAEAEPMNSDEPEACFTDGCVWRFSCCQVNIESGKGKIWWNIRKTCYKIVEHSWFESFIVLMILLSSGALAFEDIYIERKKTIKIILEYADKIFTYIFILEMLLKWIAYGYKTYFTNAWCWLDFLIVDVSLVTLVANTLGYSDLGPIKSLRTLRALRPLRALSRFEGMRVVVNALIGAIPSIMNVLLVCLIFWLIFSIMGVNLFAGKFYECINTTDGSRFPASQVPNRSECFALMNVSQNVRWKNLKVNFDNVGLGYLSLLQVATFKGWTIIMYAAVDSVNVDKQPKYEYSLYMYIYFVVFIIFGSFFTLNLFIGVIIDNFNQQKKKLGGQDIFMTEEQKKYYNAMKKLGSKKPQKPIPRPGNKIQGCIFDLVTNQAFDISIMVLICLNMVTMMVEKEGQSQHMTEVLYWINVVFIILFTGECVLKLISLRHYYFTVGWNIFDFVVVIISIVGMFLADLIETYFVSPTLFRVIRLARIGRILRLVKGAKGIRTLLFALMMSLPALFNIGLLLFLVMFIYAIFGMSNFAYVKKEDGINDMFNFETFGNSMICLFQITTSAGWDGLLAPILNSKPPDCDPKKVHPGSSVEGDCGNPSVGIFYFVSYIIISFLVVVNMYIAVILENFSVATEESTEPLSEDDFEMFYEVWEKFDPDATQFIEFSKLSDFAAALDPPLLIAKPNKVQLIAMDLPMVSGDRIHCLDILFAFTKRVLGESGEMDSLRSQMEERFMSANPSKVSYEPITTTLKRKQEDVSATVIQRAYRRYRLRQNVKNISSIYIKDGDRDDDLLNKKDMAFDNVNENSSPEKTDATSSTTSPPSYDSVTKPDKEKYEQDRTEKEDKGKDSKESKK

`CC[C@H](C)[C@@H]1NC(=O)[C@@H]2CSSC[C@@H]3NC(=O)[C@H](C(C)C)NC(=O)[C@H](CC(C)C)NC(=O)[C@H](CC(N)=O)NC(=O)[C@@H]4CCCN4C(=O)[C@H](CCCNC(=N)N)NC(=O)[C@H](CSSC[C@H](NC(=O)[C@@H](N)CC(=O)O)C(=O)N[C@@H](CC(C)C)C(=O)NCC(=O)N[C@@H](Cc4ccccc4)C(=O)N[C@@H](CCSC)C(=O)N[C@@H](CCCNC(=N)N)C(=O)N[C@@H](CCCCN)C(=O)N2)NC(=O)[C@H](CSSC[C@@H](C(=O)N[C@@H](CCCCN)C(=O)N[C@@H](Cc2ccc(O)cc2)C(=O)N[C@H](C(=O)N[C@@H](Cc2ccc4ccccc4c2)C(=O)N[C@@H](Cc2c[nH]c4ccccc24)C(N)=O)C(C)C)NC(=O)[C@H](Cc2c[nH]c4ccccc24)NC(=O)[C@H](CCCCN)NC(=O)[C@H](Cc2c[nH]cn2)NC(=O)[C@H]([C@@H](C)O)NC(=O)[C@H](CCCNC(=N)N)NC(=O)[C@H](CO)NC3=O)NC(=O)[C@H](CCCCN)NC(=O)[C@H](CC(=O)O)NC(=O)[C@H](CC(N)=O)NC(=O)[C@H](CC(=O)O)NC(=O)[C@@H]2CCCN2C1=O` [compound 139] (H-DCLGFMRKCIPDNDKCCRPNLVCSRTHKWCKYV[2Nal]W-NH2; disulfide 2-17, 9-23, 16-30): the pIC50 at hNav1.3 (use-dependent block, hNav1.3) is 7.30; on hNav1.7 (use-dependent block, hNav1.7), 6.96; on hNav1.5 (use-dependent block, hNav1.5) it was 5.67.

As to `CC[C@H](C)[C@@H]1NC(=O)[C@@H]2CSSC[C@@H]3NC(=O)[C@H](C(C)C)NC(=O)[C@H](CC(C)C)NC(=O)[C@H](CC(N)=O)NC(=O)[C@@H]4CCCN4C(=O)[C@H](CCCNC(=N)N)NC(=O)[C@H](CSSC[C@H](NC(=O)[C@@H](N)CC(=O)O)C(=O)N[C@@H](CC(C)C)C(=O)NCC(=O)N[C@@H](Cc4ccccc4)C(=O)N[C@@H](CCSC)C(=O)N[C@@H](CCCNC(=N)N)C(=O)N[C@@H](CCCCN)C(=O)N2)NC(=O)[C@H](CSSC[C@@H](C(=O)N[C@@H](CCCCN)C(=O)N[C@@H](CO)C(=O)N[C@H](C(=O)N[C@@H](Cc2ccccc2)C(N)=O)C(C)C)NC(=O)[C@H](Cc2c[nH]c4ccccc24)NC(=O)[C@H](CCCCN)NC(=O)[C@H](Cc2c[nH]cn2)NC(=O)[C@H]([C@@H](C)O)NC(=O)[C@H](CCCNC(=N)N)NC(=O)[C@H](CO)NC3=O)NC(=O)[C@H](CCCCN)NC(=O)[C@H](CC(=O)O)NC(=O)[C@H](CC(N)=O)NC(=O)[C@H](CC(=O)O)NC(=O)[C@@H]2CCCN2C1=O` [compound 382] (H-DCLGFMRKCIPDNDKCCRPNLVCSRTHKWCKSVF-NH2; disulfide 2-17, 9-23, 16-30), the pIC50 is 5.83 at hNav1.3 (Table 25, use, […]); 5.40 on hNav1.7 (Table 25, use, […]); below 5.30 at hNav1.5 (Table 25, use, […]).

For `CC[C@H](C)[C@@H]1NC(=O)[C@@H]2CSSC[C@@H]3NC(=O)[C@H](C(C)C)NC(=O)[C@H](CC(C)C)NC(=O)[C@H](CC(N)=O)NC(=O)[C@@H]4CCCN4C(=O)[C@H](CCCNC(=N)N)NC(=O)[C@H](CSSC[C@H](NC(=O)[C@@H](N)CC(=O)O)C(=O)N[C@@H](CC(C)C)C(=O)NCC(=O)N[C@@H](Cc4ccccc4)C(=O)N[C@@H](CCSC)C(=O)N[C@@H](CCCNC(=N)N)C(=O)N[C@@H](CCCCN)C(=O)N2)NC(=O)[C@H](CSSC[C@@H](C(=O)N[C@@H](CCCCN)C(=O)N[C@@H](CC2CCCCC2)C(=O)N[C@H](C(=O)N[C@@H](Cc2ccccc2)C(N)=O)C(C)C)NC(=O)[C@H](Cc2c[nH]c4ccccc24)NC(=O)[C@H](CCCCN)NC(=O)[C@H](Cc2c[nH]cn2)NC(=O)[C@H]([C@@H](C)O)NC(=O)[C@H](CCCNC(=N)N)NC(=O)[C@H](CO)NC3=O)NC(=O)[C@H](CCCCN)NC(=O)[C@H](CC(=O)O)NC(=O)[C@H](CC(N)=O)NC(=O)[C@H](CC(=O)O)NC(=O)[C@@H]2CCCN2C1=O` [compound 375] (H-DCLGFMRKCIPDNDKCCRPNLVCSRTHKWCK[Cha]VF-NH2; disulfide 2-17, 9-23, 16-30), the pIC50 on hNav1.3 (Table 25, use, […]) is 7.70; on hNav1.7 (Table 25, use, […]), 7.30; at hNav1.5 (Table 25, use, […]) it was 5.05.

Regarding `CC[C@H](C)[C@@H]1NC(=O)[C@@H]2CSSC[C@@H]3NC(=O)[C@H](C(C)C)NC(=O)[C@H](CC(C)C)NC(=O)[C@H](CC(N)=O)NC(=O)[C@@H]4CCCN4C(=O)[C@H](CCCNC(=N)N)NC(=O)[C@H](CSSC[C@H](NC(=O)[C@@H](N)CC(=O)O)C(=O)N[C@@H](CC(C)C)C(=O)NCC(=O)N[C@@H](Cc4cccs4)C(=O)N[C@@H](Cc4ccccc4)C(=O)N[C@@H](CCCNC(=N)N)C(=O)N[C@@H](CCCCN)C(=O)N2)NC(=O)[C@H](CSSC[C@@H](C(=O)N[C@@H](CCCCN)C(=O)N[C@@H](Cc2ccc(O)cc2)C(=O)N[C@H](C(=O)N[C@@H](Cc2ccccc2)C(N)=O)C(C)C)NC(=O)[C@H](Cc2c[nH]c4ccccc24)NC(=O)[C@H](CCCCN)NC(=O)[C@H](Cc2c[nH]cn2)NC(=O)[C@H]([C@@H](C)O)NC(=O)[C@H](CCCNC(=N)N)NC(=O)[C@H](CO)NC3=O)NC(=O)[C@H](CCCCN)NC(=O)[C@H](CC(=O)O)NC(=O)[C@H](CC(N)=O)NC(=O)[C@H](CC(=O)O)NC(=O)[C@@H]2CCCN2C1=O` [compound 614] (H-DCLG[2Thi]FRKCIPDNDKCCRPNLVCSRTHKWCKYVF-NH2; disulfide 2-17, 9-23, 16-30), the pIC50 is 7.11 at hNav1.3 (use-dependent block, hNav1.3); 7.92 on hNav1.7 (use-dependent block, hNav1.7); 5.39 on hNav1.5 (use-dependent block, hNav1.5).

For `C#CCCC(=O)NCCCC[C@@H]1NC(=O)[C@H](CC(=O)O)NC(=O)[C@@H]2CCCN2C(=O)[C@H]([C@@H](C)CC)NC(=O)[C@@H]2CSSC[C@@H]3NC(=O)[C@H](C(C)C)NC(=O)[C@H](CC(C)C)NC(=O)[C@H](CC(N)=O)NC(=O)[C@@H]4CCCN4C(=O)[C@H](CCCNC(=N)N)NC(=O)[C@H](CSSC[C@H](NC(=O)[C@@H](N)CC(=O)O)C(=O)N[C@@H](CC(C)C)C(=O)NCC(=O)N[C@@H](CCC)C(=O)N[C@@H](CC(C)C)C(=O)N[C@@H](CCCNC(=N)N)C(=O)N[C@@H](CCCCN)C(=O)N2)NC(=O)[C@H](CSSC[C@@H](C(=O)N[C@@H](CCCCN)C(=O)N[C@@H](Cc2ccc(O)cc2)C(=O)N[C@H](C(=O)N[C@@H](Cc2ccccc2)C(N)=O)C(C)C)NC(=O)[C@H](Cc2c[nH]c4ccccc24)NC(=O)[C@H](CCCCN)NC(=O)[C@H](Cc2c[nH]cn2)NC(=O)[C@H]([C@@H](C)O)NC(=O)[C@H](CCCNC(=N)N)NC(=O)[C@H](CO)NC3=O)NC(=O)[C@H](CCCCN)NC(=O)[C@H](CC(=O)O)NC1=O` [compound 806] (H-DCLG[Nva]LRKCIPDK(Pent4ynoyl)DKCCRPNLVCSRTHKWCKYVF-NH2; disulfide 2-17, 9-23, 16-30), the pIC50 on hNav1.3 (use-dependent block, hNav1.3) is 6.41; at hNav1.7 (use-dependent block, hNav1.7), 6.54; at hNav1.5 (use-dependent block, hNav1.5) it was 4.47.

On to `CC[C@H](C)[C@@H]1NC(=O)[C@@H]2CSSC[C@@H]3NC(=O)[C@H](C(C)C)NC(=O)[C@H](CC(C)C)NC(=O)[C@H](CC(N)=O)NC(=O)[C@@H]4CCCN4C(=O)[C@H](CCCNC(=N)N)NC(=O)[C@H](CSSC[C@H](NC(=O)[C@H](CC(=O)O)NC(=O)[C@@H](N)CCCNC(=N)N)C(=O)N[C@@H](CC(C)C)C(=O)NCC(=O)N[C@@H](Cc4ccccc4)C(=O)N[C@@H](CCSC)C(=O)N[C@@H](CCCNC(=N)N)C(=O)N[C@@H](CCCCN)C(=O)N2)NC(=O)[C@H](CSSC[C@@H](C(=O)N[C@@H](CCCCN)C(=O)N[C@@H](Cc2ccc(O)cc2)C(=O)N[C@H](C(=O)N[C@@H](Cc2ccccc2)C(N)=O)C(C)C)NC(=O)[C@H](Cc2c[nH]c4ccccc24)NC(=O)[C@H](CCCCN)NC(=O)[C@H](Cc2c[nH]cn2)NC(=O)[C@H]([C@@H](C)O)NC(=O)[C@H](CCCNC(=N)N)NC(=O)[C@H](CO)NC3=O)NC(=O)[C@H](CCCCN)NC(=O)[C@H](CC(=O)O)NC(=O)[C@H](CC(N)=O)NC(=O)[C@H](CC(=O)O)NC(=O)[C@@H]2CCCN2C1=O` [SEQ ID NO: 61], for which the pIC50 at hNav1.3 (setting [1]) was 7.10; on hNav1.7 (setting [1]) it was 6.77; on hNav1.5 (setting [1]), 4.82.

With `CC[C@H](C)[C@@H]1NC(=O)[C@@H]2CSSC[C@@H]3NC(=O)[C@H](C(C)C)NC(=O)[C@H](CC(C)C)NC(=O)[C@H](CC(N)=O)NC(=O)[C@@H]4CCCN4C(=O)[C@H](CCCNC(=N)N)NC(=O)[C@H](CSSC[C@H](NC(=O)[C@@H](N)CC(=O)O)C(=O)N[C@@H](CC(C)C)C(=O)NCC(=O)N[C@@H](C)C(=O)N[C@@H](Cc4cccc5ccccc45)C(=O)N[C@@H](CCCNC(=N)N)C(=O)N[C@@H](CCCCN)C(=O)N2)NC(=O)[C@H](CSSC[C@@H](C(=O)N[C@@H](CCCCN)C(=O)N[C@@H](Cc2ccc(O)cc2)C(=O)N[C@H](C(=O)N[C@@H](Cc2ccccc2)C(N)=O)C(C)C)NC(=O)[C@H](Cc2c[nH]c4ccccc24)NC(=O)[C@H](CCCCN)NC(=O)[C@H](Cc2cnc[nH]2)NC(=O)[C@H]([C@@H](C)O)NC(=O)[C@H](CCCNC(=N)N)NC(=O)[C@H](CO)NC3=O)NC(=O)[C@H](CCCCN)NC(=O)[C@H](CC(=O)O)NC(=O)[C@H](CC(N)=O)NC(=O)[C@H](CC(=O)O)NC(=O)[C@@H]2CCCN2C1=O` [compound 256], the pIC50 on hNav1.3 (use-dependent block, hNav1.3) was 7.22; on hNav1.7 (use-dependent block, hNav1.7) it was 7.00; on hNav1.5 (use-dependent block, hNav1.5) it was 5.30.
